Values of other authors as cited in patent US11925695B2, “Methods for making ultrasound contrast agents” (Lantheus Medical Imaging, Inc., priority 2016, dated 2024).
Read-outs that look alike come from different tables or passages of the source.

Columns and labels:
[1] = not given; remark: listed apart in the source

CC(O)CO (centres unmarked) [Propylene glycol, propylene glycol]
viscosity (at 25° C.): 42 cps

O [Water]
viscosity (at 15° C.): approximately 1.14 cps

OCC(O)CO [Glycerol, glycerol]
viscosity (at 15° C.): 2200 cps

CCCCCCCCCCCCCCCC(=O)OC[C@H](COP(=O)(O)OCCN)OC(=O)CCCCCCCCCCCCCCC [DPPE, 1,2-dipalmitoyl-sn-glycero-3-phosphatidylethanolamine]
pKa for the amine of the ethanolamine [1]: 9.3 | pKa for the hydroxyl of the phosphate [1]: 1.9
